Results reported in publication PMC8452690, “Structural basis for small molecule targeting of Doublecortin Like Kinase 1 with DCLK1-IN-1” (Communications Biology, 2021).
Where “and” joins values, the source holds several entries; their conditions need not be identical. Equal values may be shown once. Read-outs that look alike come from different tables or passages of the source. Marks after values point to notes of the source that are not given here.

How the values were obtained:
DCLK1-FL1Δ D511N = target: T1, DCLK1-FL1Δ D511N (Homo sapiens, UniProt O15075, D511N); assay: SPR binding to immobilised DCLK1-FL1Δ D511N (non-phosphorylated); details: for Kd: 18 °C, DCLK1 FL1Δ D511N immobilised, mean ± SEM
T1 construct: DCLK1-FL1Δ (residues 50-686); 8XHis tag with TEV protease cleavage site (N); made in house; host or cells: Escherichia coli C41(DE3)
Method: SPR studies were carried out on a Biacore 2000 instrument (Cytivia). Proteins were immobilised at 25 °C using standard amine coupling to a CM5 chip (Cytivia) in immobilisation buffer consisting of 10 mM HEPES pH 7.4, 150 mM NaCl, 1 mM TCEP, 0.005% Tween P20, 1% (v/v) DMSO. To the active flow, cells were coupled either DCLK1-FL1Δ D511N or WT to a final density of approximately 7000 RU, followed by surface deactivation with 1 M ethanolamine. For each protein, coupling was performed at a concentration of 2 µM protein in 10 mM sodium acetate buffer pH 4.0, 1% (v/v) DMSO final, in the presence 10 µM of the moderate affinity compound FMF-03-149-01 (IC50 ~400 nM)[28] to help to stabilise the kinase domain during immobilsiation at low pH. A blank immobilisation was performed on the reference flow cell.
Binding experiments were performed at 18 °C in running buffer consisting of 20 mM HEPES, pH 7.4, 150 mM NaCl, 1 mM tris(2-carboxyethyl)phosphine (TCEP), 0.005% (v/v) Tween-P20, and 2% (v/v) DMSO. Compounds (10 mM stocks in 100% DMSO) were diluted in DMSO to 500 µM (DCLK1-NEG) or 25 µM (all other compounds) then in running buffer (without DMSO) to achieve the starting concentration with a final DMSO concentration of 2% (v/v). Samples were then serially titrated in running buffer containing 2% (v/v) DMSO to prepare each final concentration series (seven-point, three-fold serial dilution, 10 µM−13.7 nM for DCLK1-NEG, or 500−0.68 nM for all other compounds). Solutions were injected in multi-cycle format (in duplicate) without regeneration (contact time 80 s, flow rate 75 μL/min, dissociation time 600 s), with an extra wash (50% DMSO) after each injection.
Steady-state/kinetic binding data were fitted using the S200 BIAevaluation software (GE Healthcare). Sensorgrams from reference surfaces and blank injections were subtracted from the raw data (double-referencing), followed by solvent correction. Kinetic rate constants (kon and koff values) were obtained by fitting to 1:1 Langmuir binding model. Reported binding data represent mean ± SEM for three or four independent experiments. The dissociative half-life life (t1/2) for each inhibitor complex with DCLK1 was calculated from the fitted dissociation rate constant (koff), according to the equation 1 (t1/2 = ln(2)/koff.)

DCLK1-FL1Δ WT = target: T2, DCLK1-FL1Δ WT (Homo sapiens, UniProt O15075); assay: Thermal shift stability assay, DCLK1-FL1Δ WT; assay type: binding; details: phosphorylated WT, 2.5-40 μM
T2 sequence (O15075 50-686 isoform O15075-2): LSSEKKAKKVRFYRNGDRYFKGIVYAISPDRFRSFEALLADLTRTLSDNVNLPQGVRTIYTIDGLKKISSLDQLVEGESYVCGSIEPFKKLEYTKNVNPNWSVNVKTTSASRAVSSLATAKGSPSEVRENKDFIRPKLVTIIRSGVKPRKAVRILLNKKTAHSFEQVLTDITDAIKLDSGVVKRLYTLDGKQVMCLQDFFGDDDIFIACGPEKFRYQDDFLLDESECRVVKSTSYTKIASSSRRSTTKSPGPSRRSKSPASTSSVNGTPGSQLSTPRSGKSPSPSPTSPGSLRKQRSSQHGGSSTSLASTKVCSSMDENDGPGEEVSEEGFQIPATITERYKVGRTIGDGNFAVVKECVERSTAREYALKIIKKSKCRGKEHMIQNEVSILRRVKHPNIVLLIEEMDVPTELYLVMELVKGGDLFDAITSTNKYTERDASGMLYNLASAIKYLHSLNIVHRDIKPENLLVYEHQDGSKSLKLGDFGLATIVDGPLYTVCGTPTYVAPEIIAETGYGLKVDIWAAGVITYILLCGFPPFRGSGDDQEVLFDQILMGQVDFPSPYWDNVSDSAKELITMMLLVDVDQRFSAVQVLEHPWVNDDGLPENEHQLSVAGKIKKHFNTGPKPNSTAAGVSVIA
Method: DCLK1 proteins were diluted in 150 mM NaCl, 20 mM Tris pH 8.0, 1 mM DTT to […] final concentration and assayed with the appropriate concentration of inhibitor in a total reaction volume of 25 μL. SYPRO Orange (Molecular Probes) was used as a fluorescence probe and detected at 530 nm. The data shown are representative of two independent experiments.

[1] = target: T3, DCLK1-FL1Δ WT tubulin polymerisation activity (Homo sapiens, UniProt O15075); assay: Tubulin polymerisation and pelleting assay with DCLK1-FL1Δ WT; assay type: biochemical; details: 20 and 40 μM (Supplementary Fig. 10c)
T3 construct: DCLK1-FL1Δ (residues 50-686); 8XHis tag with TEV protease cleavage site (N); made in house; host or cells: Escherichia coli C41(DE3)
T3 sequence (O15075 50-686 isoform O15075-2): T2 sequence (O15075 50-686 isoform O15075-2)
Method: Tubulin polymerisation assays were performed in buffer containing 80 mM PIPES at pH 6.9, 2.0 mM MgCl2, 0.5 mM EGTA, 2.5 mM β,γ-Methyleneguanosine 5’-triphosphate, and 10 μM tubulin and 5 μM DCLK1 for 1 h at 37 °C. For tubulin polymerisation in the presence of inhibitors, various concentrations of the inhibitors were first incubated with DCLK1 and allowed to stand on ice for 5 min before adding this mix to the tubulin polymerisation reaction. Following the tubulin polymerisation, the reaction mix was pelleted at 20,000 g for 20 min and the supernatant and the pellet fractions were run on a 12% SDS gel. The data shown are representative of two independent experiments.

DCLK1-KD = target: DCLK1-KD; design: method as in PMID 32251410; details: read-out: KD by ITC; cited from earlier work

T1 sequence (O15075 50-686 D511N): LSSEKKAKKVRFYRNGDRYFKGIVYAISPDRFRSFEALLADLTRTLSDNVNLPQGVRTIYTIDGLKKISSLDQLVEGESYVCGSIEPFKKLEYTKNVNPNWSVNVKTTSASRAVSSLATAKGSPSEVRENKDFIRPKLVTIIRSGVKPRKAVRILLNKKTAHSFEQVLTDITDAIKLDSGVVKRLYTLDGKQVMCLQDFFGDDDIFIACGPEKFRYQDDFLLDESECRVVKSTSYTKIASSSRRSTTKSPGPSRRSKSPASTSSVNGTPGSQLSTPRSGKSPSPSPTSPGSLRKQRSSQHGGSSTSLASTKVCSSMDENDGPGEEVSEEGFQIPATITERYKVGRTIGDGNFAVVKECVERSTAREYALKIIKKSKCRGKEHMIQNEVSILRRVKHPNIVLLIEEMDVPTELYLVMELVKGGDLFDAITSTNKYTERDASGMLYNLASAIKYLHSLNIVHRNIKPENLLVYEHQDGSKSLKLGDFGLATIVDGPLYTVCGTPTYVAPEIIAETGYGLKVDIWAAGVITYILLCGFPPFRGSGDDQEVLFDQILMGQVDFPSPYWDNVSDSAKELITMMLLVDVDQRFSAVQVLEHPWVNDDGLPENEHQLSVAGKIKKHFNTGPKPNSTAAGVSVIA

kon, kinetic fitting (DCLK1-FL1Δ D511N): 5.1 ± 0.3 1/Ms (x 10^5)
off-rate faster relative to FMF-03-055-01 or XMD8-85 (DCLK1-FL1Δ D511N; SPR): ~ 2 fold
on-rate slower relative to FMF-03-055-01 or XMD8-85 (DCLK1-FL1Δ D511N; SPR): ~ 2 fold
affinity weaker than FMF-03-055-01 or XMD8-85 (DCLK1-FL1Δ D511N; SPR KD, DCLK1-FL1Δ D511N): 4−5 fold
Kd (DCLK1-FL1Δ D511N; SPR, read-out: KD, kinetic fitting (1:1 binding model)): 53 nM
Kd (DCLK1-FL1Δ D511N; SPR, read-out: KD, steady state fitting): 70 ± 4 nM
reduction in DCLK1 affinity compared to FMF-03-055-1 (DCLK1-FL1Δ D511N; discussion statement): five-fold reduction
koff (DCLK1-FL1Δ D511N; read-out: koff, kinetic fitting): 0.027 ± 0.001 s⁻¹
kon (DCLK1-FL1Δ D511N; read-out: kon (Fig. 5c)): 510000 ± 30000 M⁻¹ s⁻¹
melting temperature change versus control compound DCLK1-NEG (DCLK1-FL1Δ WT): increased
restoration of DCLK1-FL1Δ WT tubulin polymerisation activity [1]: did not restore
Compound: COc1cc(N2CCN(C)CC2)ccc1Nc1ncc2c(n1)N(C)c1ccccc1C(=O)N2CC(F)(F)F [DCLK1-IN-1]
Kd (DCLK1-KD): 55 nM and 109 nM
